This is an account of results in US20070249988A1, “Electrotransport Delivery of Nesiritide” (ALZA CORPORATION, priority 2006, published 2007).

Data set [1] in a line: Circular dichroic spectrometry (CD), secondary structure. Format: physicochemical. On the procedure:
Circular dichroic spectrometry was used to assess the amount of secondary structure present in nesiritide under aqueous, low ionic strength conditions. In addition, changes in the value calculated for mean residual ellipticity were analyzed to determine if secondary structure, specifically α-helix, could be induced upon the addition of 2,2,2-trifluoroethanol (TFE) or high salt, or both, to nesiritide in aqueous solution at 0.8 mg/mL.
Several methods have been used to estimate the secondary structural components of proteins from the CD spectra. The techniques have been applied to peptide spectra with varying degrees of success (Sreerama, N., Woody, R. W. A Self-Consistent method for the Analysis of Protein Secondary Structure from Circular Dichroism, Analytical Biochemistry, 1993; 209 32-44; Yang, J. T. et al. Separation and Analysis of Peptides and Proteins, Methods Enzymology, 1986; 130 208-269). Computer programs were used to analyze the data from CD scans. Mean residue ellipticity ([θ]nm) was computed at each wavelength and compared to reference spectra to estimate the relative amounts of helix, sheet, turn and aperiodic secondary structure.
The secondary structure assumed by nesiritide in an aqueous environment and induced by the addition of TFE, NaCl or both, were analyzed by CD. The peptide was studied at both 32 and 20° C. The peptide was studied at two concentrations: 0.2 mg/mL (20° C.) to allow data to be obtained at wavelengths below 200 nm, and at 0.8 mg/mL (32° C.) to increase any tendency toward self association. The CD ellipticity values at 222 nm have been interpreted to best reflect the amount of α-helix. The fully helical peptide or protein would have [θ]222nm of −32,000° cm^2, while the peptide lacking secondary structure would have a value of ˜2400° cm^2.
The use of the lower concentration, with a 2 mm path, allowed data to be collected down to 197 nm. The difference spectrum (FIG. 1B) was resolved into component gaussian bands (Holladay, L. A., Savage, C. R., Cohen, S., Puett, D. Biochemistry, 1976; 15 2624-2633; Holladay, L. A., Hammonds, R. G., Jr., Puett, D. Biochemistry, 1974; 13 1653-1661) in order to estimate the amount of α-helix and β-sheet formed. Estimates of secondary structure were made by computing the ratio of the observed rotational strength (R cgs) with those for poly-L lysine in either the α-helical or β-sheet form. The table below gives the parameters of the resolved gaussians, and the estimates of secondary structure. Nesiritide in 40% TFE probably exists as a mixture of conformers.

The nature of data set [2]: Stability under donor conditions (buffer, RP-HPLC). Format: physicochemical. The protocol:
The stability of nesiritide at 32° C. under both donor and receptor conditions was evaluated.
The peptide was incubated in various buffer systems, both with and without human epidermis, at concentrations to be used for donor solutions. Experiments were conducted at 32° C. for 8 hours and 24 hours. The solutions were separated into portions and analyzed by RP-HPLC using the conditions described in the table below, both directly and after dilution to give a concentration of nesiritide at ˜100 μg/mL. In some cases, donor solutions were also removed and analyzed following ET Flux experiments.

Another data set concerns hairless guinea pigs. Put plainly: Skin irritation after electrotransport administration. Format: in vivo. On the procedure:
Nesiritide was administered to hairless guinea pigs, and the guinea pigs were monitored for skin irritation.

Data set [3] is described as follows: In vitro electrotransport of nesiritide using hydrogel reservoirs. Format: in vitro ADME. The conditions noted are these: heat separated human epidermis. On the procedure: Suitable nesiritide flux rates can be achieved by selecting appropriate electrotransport conditions. […] The data shown in the figure were obtained using the transdermal delivery of nesiritide with a silver donor electrode at the anode and a silver chloride counter electrode at the cathode. […] The tests were performed on heat separated human epidermis.
In vitro electrotransport flux experiments were conducted using either synthetic polymeric Nulepore membranes or heat separated human cadaver epidermis. Custom-built horizontal diffusion cells were used for all in vitro skin flux experiments. Silver and silver chloride electrodes were used to apply current across the cell. Nesiritide hydrogels were placed between the silver anode and human heat-separated epidermis. In addition, a PVOH hydrogel containing a polymeric chloride source was placed between the silver anode and the drug hydrogel. A 1/10 dilution of Dulbecco's phosphate buffered saline (0.015 M NaCl) served as the receptor solution, which was continuously pumped through the receptor compartment. […]
The receptor samples were analyzed for nesiritide using a HPLC assay. In addition, as show in FIGS. 6B and 7B, formulations were also extracted for nesiritide and analyzed via a HPLC assay after use in a flux experiment.

[4] abbreviates: 40% TFE difference spectrum, 0.2 mg/mL, 20° C., pH 7, 10 mM ionic cacodylate, 2 mm path.

Molecules are shown by their SMILES.

On to `CC[C@H](C)[C@@H]1NC(=O)[C@H](CCCNC(=N)N)NC(=O)[C@H](CC(=O)O)NC(=O)[C@H](CCSC)NC(=O)[C@H](CCCCN)NC(=O)[C@H](CCCNC(=N)N)NC(=O)CNC(=O)[C@H](Cc2ccccc2)NC(=O)[C@@H](NC(=O)CNC(=O)[C@H](CO)NC(=O)CNC(=O)[C@H](CCC(N)=O)NC(=O)[C@@H](NC(=O)[C@H](CCSC)NC(=O)[C@H](CCCCN)NC(=O)[C@@H]2CCCN2C(=O)[C@@H](N)CO)C(C)C)CSSC[C@@H](C(=O)N[C@@H](CCCCN)C(=O)N[C@H](C(=O)N[C@@H](CC(C)C)C(=O)N[C@@H](CCCNC(=N)N)C(=O)N[C@@H](CCCNC(=N)N)C(=O)N[C@@H](Cc2c[nH]cn2)C(=O)O)C(C)C)NC(=O)CNC(=O)[C@H](CC(C)C)NC(=O)CNC(=O)[C@H](CO)NC(=O)[C@H](CO)NC(=O)[C@H](CO)NC(=O)[C@H](CO)NC1=O` [Nesiritide, nesiritide], for which the “[θ]222nm mean residue ellipticity” value in data set [1] (0.8 mg/mL (1 mm path), pH 5.5 unbuffered, in water) is −1984 deg cm^2 dmol^−1; in data set [1] (32° C., 40% or 80% TFE or 1.8 M NaCl) it was around 3200 ° cm^2 dmol^−1. In addition, the “% Structure Estimate, α-Helix n → Π* (222 nm)” value in data set [1] (setting [4]) is reported as 6.4%. In data set [1] (setting [4]), the “% Structure Estimate, α-Helix Π → Π* (208 nm)” value is listed as 5.0%. In addition, the “% Structure Estimate, β-Sheet n → Π* (215 nm)” value in data set [1] (setting [4]) is on record as 5.1%. Further, the stability entry in data set [2] (pH 6, 7 or 8, without human epidermis, 32° C., 8-hour) is reported as “considerable stability”; in data set [2] (pH 6 and 7, 24-hour incubation at 32° C.), “remained stable”; in data set [2] (pH 8, 24-hour incubation at 32° C.) it was “considerable loss of nesiritide”. Besides, the degradation result in data set [2] (pH 6 or 7, after 24 hours at 32° C.) is reported as “minimal”. The “peptide degradation or change in disulfide bond in donor solutions” value in data set [2] (selected donor solutions following ET flux) is on record as “no peptide degradation or change in the disulfide bond”. The skin irritation entry in the data set on hairless guinea pigs (0.1 mA/cm^2) and in the data set with hairless guinea pigs (0.2 mA/cm^2) was “mild” in each case. Also, in data set [3], the “correlation between magnitude of applied current and steady state flux” value is reported as “linear correlation”. Further, in data set [3] (silver donor electrode at anode, silver chloride counter electrode at cathode), the “in vitro transport efficiency” value is recorded as “about 0.14 mg/mAhr”.
